{"source": "patent US12491246B2", "about": "“Combination therapy of arms and natural killer cells” (KLEO PHARMACEUTICALS, INC., priority 2018, dated 2025)", "key": {"[1]": {"system": "LNCap cells", "assay": "Ternary complex formation of ARM, antibody and target cells (flow cytometry)", "format": "cell-based, human", "conditions": "20 ug/ml rabbit anti-DNP Alexa 488, 4 C 30 min, mean fluorescence", "description": "Various technologies are suitable for assessing complex formation. One example such assay was described below. Those skilled in the art appreciate that one or more parameters and/or conditions may be adjusted and other assays/reagents/conditions, etc., can also be utilized.\nAdherent cells (LNCap, CRL-1740, for example results below) were harvested using Accumax (Sigma-Aldrich A7089-100 ml). Compounds were diluted in DMSO (MP 191418) to 1000× the starting concentration used in the assay into a 96 well polypropylene plate (Corning 3357). They were then serially diluted in ½ log increments to generate 8-12 concentrations in DMSO (assay dependent). These DMSO stocks were then step diluted 1/10 into PBS (VWR Cat. #20012043). The step diluted compound range was then added into the polypropylene assay plate 1/100 the volume of the assay volume. The cells used for the assay were counted and centrifuged and resuspended at a concentration of 100,000 cells per 200 ul in Flow buffer: 1% BSA (American Bio AB01088-00100); 0.5 mM EDTA (VWR 45001-122); PBS (VWR Cat. #20012043) with 20 ug/ml rabbit anti-DNP Alexa 488 (Thermo Fisher Scientific A11097). The cells were then added into the polypropylene plate with the step diluted compounds and incubated at 4 C 30 min. At the end of the incubation, the cells were centrifuged and washed 2× with Flow buffer containing 0.5% Tween 20 (BP337-500). Samples were analyzed on a BD FacsCelesta. Mean fluorescence was analyzed using Graphpad Prism and curves were fit using log (inhibitor) vs. response-Variable slope (four parameters)."}, "[2]": {"system": "LNCaP target cells and reporter cells with CD16a-158V/V variant", "assay": "ADCC reporter assay", "format": "cell-based, human", "description": "In one example, LNCaP cells (human prostate cancer derived, ATCC: CRL-1740) were detached and re-suspended in 1% BSA in RPMI. Cell solution was filtered to remove cell aggregate (polystyrene tube with cell strainer, Corning: 352235) before being counted (Life Technologies Countless II cell counter) and plated (10,000 cells in 25 μL/well; Corning plates: 3917). The plated was centrifuged (5 min, 300×g) and the compound solutions (25 μL/well) were added immediately after. The antibody solutions (25 μL/well, IgG1 FC-Thermo Fisher: 10702HNAH5; Dintrophenyl-KLH polyclonal antibody-Thermo Fisher: A-6430) were added following a 45 min incubation at 37° C. The plate was then incubated with the antibody solution for 45 min to allow for cell-ARM-antibody ternary complex formation before the addition of the effector cells (60 K in 25 μL/well, ADCC reporter cells—Promega kit: G7018). The plate was centrifuged (5 min, 300×g) and effector cells were incubated for an 5 h at 37° C. Following the induction period the plate was equilibrated to 25° C. followed the addition of the luciferase substrate (75 μL/well, 1 vial in 10 mL of Bio-Glo assay buffer, Promega kit: G7018). The plate was then centrifuged (5 min, 300×g) and the luminescence was measured (Biotek Synergy H1 microplate reader).\nAn example set of data are present below:\nLNCaP target cells and reporter cells with CD16a-158V/V variant"}, "[3]": {"system": "non-CIML NK cells", "assay": "NK cell fratricide assay, non-CIML control NK cells", "format": "cell-based", "conditions": "daratumumab treatment, 2 hr", "description": "(§1) PBMC isolation: Leukopheresis product from a donor with body mass index (BMI) between 19-25, under 50 years old, not on immuno-suppressive drugs for at least 2 weeks with an estimated PBMC cell count of >10^10 was obtained from Key Biologics (subject ID 20982200) and transported at ambient temperature. Leukopheresis bag was wiped down with 70% EtOH, a small slit was made and contents were pipetted off into tubes. Leukopak contents were diluted 1:1 with PBS without Ca++/Mg++ and 20 ml of this mixture was layered on top of 25 mL of Ficoll. Tubes were then centrifuged at 400 g for 30 minutes without brakes. PBMCs were harvested from the interface into separate tubes, and tubes were filled to 50 mL with PBS. Cells were centrifuged for 10 min at 120 g to get rid of platelets. Supernatant was poured off and cells were re-suspended in RPMI 10% FBS at a concentration of 7-10×10^6 cells/ml. Cells were cultured overnight at 37C in a 5% CO2 atmosphere until NK cell isolation.\nNK cell isolation: PBMC were centrifuged at 400 g for 10 min and re-suspended in EasySep buffer. NK cells were isolated using NK cell isolation kits from STEMCELL Technologies according to kit's manufacturers' instructions. NK cell purity and phenotype was assessed by trypan Blue and flow cytometry using the following antibody cocktail: anti-CD56PE, CD3 APC, and viability was determined using staining with Trypan Blue exclusion dye, and by flow cytometry using Near Infra-Red Fixable viability dye (Thermo Fisher). […]\nPurity and viability of NK cells and CIML NK cells: Among other things, the present disclosure provides highly pure and viable NK cell populations following isolation from PBMC. […] After an overnight incubation, purity and viability were assessed in the cultured cell populations. […]\n(§2) NK cell fratricide (death directed at NK cells in the same culture) was assessed by flow cytometry following a 2 hr incubation with the CD38 ARM at indicated concentrations in the presence or absence of 500 μg/ml intravenous immune globulin (IVIG). […]"}, "[4]": {"system": "CIML NK cells", "assay": "CIML NK cell fratricide assay", "format": "cell-based", "conditions": "CIML NK cells; 3 μg/ml or 20.1 nM; 2 hours post-incubation", "description": "as §1\nNK cell isolation: PBMC were centrifuged at 400 g for 10 min and re-suspended in EasySep buffer. NK cells were isolated using NK cell isolation kits from STEMCELL Technologies according to kit's manufacturers' instructions. NK cell purity and phenotype was assessed by trypan Blue and flow cytometry using the following antibody cocktail: anti-CD56PE, CD3 APC, and viability was determined using staining with Trypan Blue exclusion dye, and by flow cytometry using Near Infra-Red Fixable viability dye (Thermo Fisher).\nCIML NK cell generation: Isolated NK cells were re-suspended at 2×10^6 cells/ml in XVIVO 10% Human Serum and the following concentrations IL-15 (50 ng/ml), IL-12 (10 ng/ml), IL-18(50 ng/ml) for 12 to 18 hrs. […]\nas §2"}}, "note": "“And” between values parts separate entries of the source, which are not always exact repeats. Identical values can stand only once.", "data": [{"compound": "CC(C)C[C@@H]1NC(=O)[C@H](Cc2c[nH]cn2)NC(=O)[C@H](Cc2c[nH]c3ccccc23)NC(=O)[C@H](C)NC(=O)[C@@H](NC(=O)[C@H](CC(=O)O)NC(=O)CCOCCOCCOCCOCCOCCOCCOCCOCc2cn(CCCC[C@H](NC(=O)N[C@@H](CCC(=O)O)C(=O)O)C(=O)O)nn2)CSSC[C@@H](C(=O)N[C@H](C(=O)O)[C@@H](C)O)NC(=O)[C@H](Cc2c[nH]c3ccccc23)NC(=O)[C@H](C(C)C)NC(=O)[C@H](CC(C)C)NC(=O)[C@H](CCC(=O)O)NC(=O)CNC1=O", "note": "[Compound I-11]", "values": [{"measurement": "EC50", "setting": "[1]", "result": 6.6, "unit": "nM"}, {"measurement": "Luminescence (background substracted)", "setting": "[2]; I-11 3.2 nM, IgG1 FC (20 nM)", "result": "165.5 and 123.5"}, {"measurement": "Luminescence (background substracted)", "setting": "[2]; I-11 3.2 nM, IgG1 FC (200 nM)", "result": "172 and 189"}, {"measurement": "Luminescence (background substracted)", "setting": "[2]; I-11 3.2 nM, anti-DNP (20 ug/mL)", "result": "128.5 and 86.5"}, {"measurement": "Luminescence (background substracted)", "setting": "[2]; I-11 16 nM, IgG1 FC (20 nM)", "result": "667.5 and 621.5"}, {"measurement": "Luminescence (background substracted)", "setting": "[2]; I-11 16 nM, IgG1 FC (200 nM)", "result": "1216 and 1040"}, {"measurement": "Luminescence (background substracted)", "setting": "[2]; I-11 16 nM, anti-DNP (20 ug/mL)", "result": "934.5 and 855.5"}, {"measurement": "Luminescence (background substracted)", "setting": "[2]; I-11 80 nM, IgG1 FC (20 nM)", "result": "1251.5 and 1037.5"}, {"measurement": "Luminescence (background substracted)", "setting": "[2]; I-11 80 nM, IgG1 FC (200 nM)", "result": "1708 and 1823"}, {"measurement": "Luminescence (background substracted)", "setting": "[2]; I-11 80 nM, anti-DNP (20 ug/mL)", "result": "1635.5 and 1605.5"}, {"measurement": "Luminescence (background substracted)", "setting": "[2]; I-11 400 nM, IgG1 FC (20 nM)", "result": "797.5 and 679.5"}, {"measurement": "Luminescence (background substracted)", "setting": "[2]; I-11 400 nM, IgG1 FC (200 nM)", "result": "1827 and 1494"}, {"measurement": "Luminescence (background substracted)", "setting": "[2]; I-11 400 nM, anti-DNP (20 ug/mL)", "result": "1842.5 and 1696.5"}, {"measurement": "Luminescence (background substracted)", "setting": "[2]; I-11 2000 nM, IgG1 FC (20 nM)", "result": "151.5 and 163.5"}, {"measurement": "Luminescence (background substracted)", "setting": "[2]; I-11 2000 nM, IgG1 FC (200 nM)", "result": "1372 and 1118"}, {"measurement": "Luminescence (background substracted)", "setting": "[2]; I-11 2000 nM, anti-DNP (20 ug/mL)", "result": "1374.5 and 1253.5"}]}, {"compound": "CC(C)C[C@@H]1NC(=O)[C@H](Cc2c[nH]cn2)NC(=O)[C@H](Cc2c[nH]c3ccccc23)NC(=O)[C@H](C)NC(=O)[C@@H](NC(=O)[C@@H](N)CC(=O)O)CSSC[C@@H](C(=O)N[C@H](C(=O)NCCOCCOCCOCCOCCOCCOCCOCCOCc2cn(CCCC[C@H](NC(=O)N[C@@H](CCC(=O)O)C(=O)O)C(=O)O)nn2)[C@@H](C)O)NC(=O)[C@H](Cc2c[nH]c3ccccc23)NC(=O)[C@H](C(C)C)NC(=O)[C@H](CC(C)C)NC(=O)[C@H](CCC(=O)O)NC(=O)CNC1=O", "note": "[Compound I-16]", "values": [{"measurement": "EC50", "setting": "[1]", "result": 7.4, "unit": "nM"}]}, {"compound": "CC(C)C[C@@H]1NC(=O)[C@H](Cc2c[nH]cn2)NC(=O)[C@H](Cc2c[nH]c3ccccc23)NC(=O)[C@H](C)NC(=O)[C@@H](NC(=O)[C@H](CC(=O)O)NC(=O)CCOCCOCCOCCOCCOCCOCc2cn(CCCC[C@H](NC(=O)N[C@@H](CCC(=O)O)C(=O)O)C(=O)O)nn2)CSSC[C@@H](C(=O)N[C@H](C(=O)O)[C@@H](C)O)NC(=O)[C@H](Cc2c[nH]c3ccccc23)NC(=O)[C@H](C(C)C)NC(=O)[C@H](CC(C)C)NC(=O)[C@H](CCC(=O)O)NC(=O)CNC1=O", "note": "[Compound I-33]", "values": [{"measurement": "EC50", "setting": "[1]", "result": 3, "unit": "nM"}]}, {"compound": "CC(C)C[C@@H]1NC(=O)[C@H](Cc2c[nH]cn2)NC(=O)[C@H](Cc2c[nH]c3ccccc23)NC(=O)[C@H](C)NC(=O)[C@@H](NC(=O)[C@H](CC(=O)O)NC(=O)CCOCCOCCOCCOCCOCCOCCOCCOCc2cn(CCCC[C@H](NC(=O)N[C@@H](CCC(=O)O)C(=O)O)C(=O)O)nn2)CSSC[C@@H](C(=O)N[C@H](C(=O)O)[C@@H](C)O)NC(=O)[C@H](Cc2c[nH]c3ccccc23)NC(=O)[C@H](C(C)C)NC(=O)[C@H](CC(C)C)NC(=O)[C@H](CCC(=O)O)NC(=O)CNC1=O", "note": "[Compound I-34]", "values": [{"measurement": "EC50", "setting": "[1]", "result": 8.7, "unit": "nM"}]}, {"compound": "daratumumab [reference compound]", "values": [{"measurement": "total increase in dead NK cells over DMSO treated control", "setting": "[3]", "result": 5.6, "unit": "%"}, {"measurement": "increase in the percentage of dead NK cells", "setting": "[4]", "result": 4, "unit": "%"}]}]}
